biological target: T1, MAO-A (Homo sapiens, UniProt P21397); test: MAO-A inhibition assay (continuous, kynuramine); conditions: not given
T1 sequence (P21397 1-527): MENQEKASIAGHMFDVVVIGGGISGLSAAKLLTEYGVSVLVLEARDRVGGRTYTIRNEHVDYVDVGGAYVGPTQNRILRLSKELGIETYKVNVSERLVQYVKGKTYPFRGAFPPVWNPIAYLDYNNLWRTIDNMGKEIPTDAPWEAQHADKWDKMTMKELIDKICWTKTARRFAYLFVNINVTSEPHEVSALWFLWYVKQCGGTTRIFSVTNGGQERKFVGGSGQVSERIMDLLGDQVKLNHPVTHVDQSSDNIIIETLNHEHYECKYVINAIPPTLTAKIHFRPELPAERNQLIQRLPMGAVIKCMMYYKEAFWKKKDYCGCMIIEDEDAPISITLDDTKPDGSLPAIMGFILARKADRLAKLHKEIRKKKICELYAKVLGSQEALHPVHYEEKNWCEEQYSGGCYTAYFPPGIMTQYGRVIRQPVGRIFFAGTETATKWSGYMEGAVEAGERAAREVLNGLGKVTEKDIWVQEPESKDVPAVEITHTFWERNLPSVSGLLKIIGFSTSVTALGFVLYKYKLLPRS

SMILES | IC50 [µM]
O=C1Nc2ccc(Br)cc2/C1=N/NC(=O)c1ccccc1 [IS1] | > 40
O=C1Nc2ccc(Br)cc2/C1=N/NC(=O)c1ccc(Cl)cc1 [IS2] | 9.16 ± 0.324
O=C1Nc2ccc(Br)cc2/C1=N/NC(=O)c1ccc(Br)cc1 [IS3] | 2.385 ± 0.018
O=C1Nc2ccc(Br)cc2/C1=N/NC(=O)c1ccc(F)cc1 [IS4] | 32.85 ± 0.134
O=C1Nc2ccccc2/C1=N/NC(=O)c1ccc(Br)cc1 [IS7] | 19.2 ± 5.96
O=C1Nc2ccccc2/C1=N/NC(=O)c1ccc(F)cc1 [IS8] | 35
O=C1Nc2ccc(F)cc2/C1=N/NC(=O)c1ccccc1 [IS9] | > 40

same assay, conditions: read-out: Residual activity at 10 µM (%) MAO-A

SMILES | remaining activity at 10 µM [%]
O=C1Nc2ccc(Br)cc2/C1=N/NC(=O)c1ccccc1 [IS1] | 83.1 ± 2.34
O=C1Nc2ccc(Br)cc2/C1=N/NC(=O)c1ccc(Cl)cc1 [IS2] | 46.9 ± 2.73
O=C1Nc2ccc(Br)cc2/C1=N/NC(=O)c1ccc(Br)cc1 [IS3] | 29.5 ± 0.34
O=C1Nc2ccc(Br)cc2/C1=N/NC(=O)c1ccc(F)cc1 [IS4] | 70.1 ± 1.93
O=C1Nc2ccccc2/C1=N/NC(=O)c1ccc(Br)cc1 [IS7] | 50.8 ± 7.29
O=C1Nc2ccccc2/C1=N/NC(=O)c1ccc(F)cc1 [IS8] | 69.7 ± 3.22
O=C1Nc2ccc(F)cc2/C1=N/NC(=O)c1ccccc1 [IS9] | 67.4 ± 1

test system: IL-6; test: IL-6 expression in LPS-induced SH-SY5Y cells; format: cell-based, human; conditions: LPS 1 µg/mL 2 h, compound 24 h, SH-SY5Y

SMILES | IL-6 level vs LPS-treated group
O=C1Nc2ccccc2/C1=N/NC(=O)c1ccc(Br)cc1 [IS7] | significantly (p < 0.0001) reduced

same assay, conditions: LPS-treated cell lines

SMILES | IL-6 level compared to IS13 and IS15
O=C1Nc2ccccc2/C1=N/NC(=O)c1ccc(Br)cc1 [IS7] | significantly decreased

test system: SH-SY5Y cells; test: MTT cytotoxicity assay; format: cell-based, human; conditions: 100 μM, 24 h
Experimental: (§1) Subcultures were performed every two days.
The cells were grown in 96-well plates with 20,000 cells per well. Different compound concentrations were applied to the cells, and the treated cells were then left to incubate for 24 h. After applying 50 µL of MTT (0.5 mg/mL) to each well, the plates were incubated for 3 h, then 100 µL of DMSO was added to dissolve the purple formazan crystal, and an absorbance was measured at 570 nm using a microplate reader (ELX-800, BioTek, CA, USA). Compounds' growth inhibitory concentration (IC50) values were computed.

SMILES | Cell viability at 100 μM
O=C1Nc2ccccc2/C1=N/NC(=O)c1ccc(Br)cc1 [IS7] | remarkably decreased cell viability

same assay, conditions: Homo sapiens, 24 h

SMILES | IC50 [µM]
O=C1Nc2ccccc2/C1=N/NC(=O)c1ccc(Br)cc1 [IS7] | 97.2

test system: SOD; test: Superoxide dismutase (SOD) activity in LPS-induced SH-SY5Y cells; format: cell-based, human; conditions: 10 µM/mL
Experimental: Using a superoxide dismutase assay kit (KrishGen Biosystems, India), which measures the concentration of formazan crystals using a colorimetric assay, SOD activity was determined. In this test, a tetrazolium salt was used to detect the superoxide radicals produced by xanthine oxidase and hypoxanthine. After treatment, the medium was removed, centrifuged at 2000 rpm for 5 min at room temperature, and placed on ice. A diluted radical detector and lysed cell supernatant or a standard were applied to each well of a 96-well plate to evaluate SOD activity using an ELISA kit, according to the manufacturer’s instructions. The absorbance of the wells was then determined after 5 min at a wavelength of 450 nm using a microplate reader (Safire2, Tecan Group Ltd., Maennedorf, Switzerland).

SMILES | SOD (cellular anti-oxidant enzyme) effect
O=C1Nc2ccccc2/C1=N/NC(=O)c1ccc(Br)cc1 [IS7] | enhancing the enzyme activity

test system: CAT; test: Catalase (CAT) activity in LPS-induced SH-SY5Y cells; format: cell-based, human; conditions: 10 µM/mL
Experimental: as §1
CAT activity was determined according to Aebi[50]. A human CAT ELISA kit was purchased commercially (KrishGen Biosystems). Following treatment, the adherent cells were scraped off, suspended in cold PBS, sonicated, and placed on ice. The medium was then removed from each well. The 3 mL CAT assay combination comprised of extract (0.05 mL), phosphate buffer (1.5 mL, 100 mM buffer, pH 7.0), H2O2 (0.5 mL), and distilled water (0.95 mL). The absorbance decreased at 450 nm. CAT activity was reported in terms of ng/mL of H2O2 oxidized per min per gram[46]–[49].

SMILES | CAT (cellular anti-oxidant enzyme) effect
O=C1Nc2ccccc2/C1=N/NC(=O)c1ccc(Br)cc1 [IS7] | enhancing the enzyme activity

test system: NF-kB; test: NF-kB expression in LPS-induced SH-SY5Y cells; conditions: LPS 1 µg/mL 2 h, compound 24 h, SH-SY5Y

SMILES | NF-kB level vs LPS-treated group
O=C1Nc2ccccc2/C1=N/NC(=O)c1ccc(Br)cc1 [IS7] | significantly (p < 0.0001) reduced

biological target: T2, MAO-B (Homo sapiens, UniProt P27338); test: Enzyme kinetics, Lineweaver-Burk and secondary plots, MAO-B; format: biochemical; design: purchased Sigma-Aldrich; conditions: LB plot
T2 sequence (P27338 1-520): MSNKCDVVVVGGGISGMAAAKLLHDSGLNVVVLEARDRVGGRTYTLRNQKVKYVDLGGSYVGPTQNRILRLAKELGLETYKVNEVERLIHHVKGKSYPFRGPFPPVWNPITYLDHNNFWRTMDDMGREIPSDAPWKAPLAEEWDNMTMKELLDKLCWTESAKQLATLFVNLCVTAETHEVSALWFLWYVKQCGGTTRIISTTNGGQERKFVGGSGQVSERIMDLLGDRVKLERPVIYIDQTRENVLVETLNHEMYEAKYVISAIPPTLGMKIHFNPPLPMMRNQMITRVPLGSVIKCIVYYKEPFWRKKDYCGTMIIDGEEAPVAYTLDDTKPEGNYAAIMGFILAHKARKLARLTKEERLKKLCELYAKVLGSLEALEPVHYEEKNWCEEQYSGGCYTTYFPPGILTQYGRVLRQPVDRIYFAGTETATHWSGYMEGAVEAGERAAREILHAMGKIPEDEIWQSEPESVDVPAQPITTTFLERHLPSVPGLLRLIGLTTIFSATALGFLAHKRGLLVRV
Experimental: Enzyme inhibition patterns and Ki values were determined by comparing Lineweaver–Burk (LB) plots and their secondary plots, respectively[40].

SMILES | Type of MAO-B inhibition
O=C1Nc2ccccc2/C1=N/NC(=O)c1ccc(Br)cc1 [IS7] | competitive

same assay, conditions: secondary plot of LB slopes vs inhibitor concentration

SMILES | Ki [nM]
O=C1Nc2ccccc2/C1=N/NC(=O)c1ccc(Br)cc1 [IS7] | 44 ± 2

test system: TNF-α; test: TNF-α expression in LPS-induced SH-SY5Y cells; format: cell-based, human; conditions: LPS 1 µg/mL 2 h, compound 24 h, SH-SY5Y

SMILES | TNF-alpha level vs LPS-treated group
O=C1Nc2ccccc2/C1=N/NC(=O)c1ccc(Br)cc1 [IS7] | significantly (p < 0.0001) reduced

same assay, conditions: LPS-treated cell lines

SMILES | TNF-alpha level compared to IS13 and IS15
O=C1Nc2ccccc2/C1=N/NC(=O)c1ccc(Br)cc1 [IS7] | significantly decreased

test system: not listed separately; test: Parallel artificial membrane permeability assay (PAMPA), BBB; format: in vitro ADME; conditions: not given
Experimental: The blood–brain barrier (BBB) permeation abilities of the four lead molecules were analyzed using the PAMPA method[44],[45]. The detailed procedure is explained in the Supplementary Data.
Using a microtiter plate with 96 wells and a Millipore filter plate with 96 wells (ipvh, 125 μm thick filter, 0.45 μm pore), which was then saturated with 0.1 mL of n-dodecane, a "sandwich" structure was created in PAMPA. Stock solutions of drug samples in DMSO were created at a 10 mM concentration. The stock solution was diluted in buffer at pH 7.4 before being added to a 96-well filter plate in order to achieve a final sample concentration (0.01, 0.1, and 1 mM) and keep the DMSO concentration at 1% (v/v). The final dilutions were divided into 270 μL for the donor wells and 200 μL of pH 7.4 buffer for the acceptor well. The donor plate was placed on the top of the acceptor filter plate to form a sandwich (comprising of a synthetic lipid membrane in the center, an aqueous receiver on […], and an aqueous donor carrying an analyte on the bottom.). The test substance diffuses from the donor well across the lipid membrane and into the acceptor well. The sandwich is said to have been intact when the penetration occurred. The drug concentration in the reference, donor, and receiver wells was measured using UV spectroscopy. The rate of penetration is calculated using the following expression.
Log Pe = -ln [1-CA /Equilibrium]/A× (1/VD + 1/VA) × t

SMILES | CNS/BBB permeability in words | Prediction (CNS permeation class)
O=C1Nc2ccccc2/C1=N/NC(=O)c1ccc(Br)cc1 [IS7] | high permeability and CNS bioavailability | CNS+ (Pe (10^−6 cm/s) > 4.00: CNS + (high permeation))

same assay, conditions: pH 7.4

SMILES | Experimental Pe [cm/s]
O=C1Nc2ccccc2/C1=N/NC(=O)c1ccc(Br)cc1 [IS7] | > 4e-06

same assay, conditions: pH 7.4, read-out: Experimental Pe

SMILES | Papp [×10⁻⁶ cm/s]
O=C1Nc2ccccc2/C1=N/NC(=O)c1ccc(Br)cc1 [IS7] | 5.02 ± 0.19

test system: ROS; test: ROS assay (DCF) in LPS-treated SH-SY5Y cells; format: cell-based, human; conditions: 10 µM/mL (10 µM), vs LPS-induced cells
Experimental: as §1
The OxiSelect Intracellular ROS Assay Kit (Cell Biolabs Inc., San Diego, CA, USA) was used to quantify the levels of the fluorescent probe 20,70-dichlorodihydrofluorescin diacetate (DCFH-DA).

SMILES | DCF intensity decrease at 10 µM
O=C1Nc2ccccc2/C1=N/NC(=O)c1ccc(Br)cc1 [IS7] | effective DCF intensity decrease

same assay, conditions: LPS-induced SH-SY5Y

SMILES | DCF expression (ROS) vs cells treated with LPS alone
O=C1Nc2ccccc2/C1=N/NC(=O)c1ccc(Br)cc1 [IS7] | significantly inhibited (p < 0.0001)

biological target: T2, MAO-B; test: Reversibility study by dialysis, MAO-B; conditions: […] IC50, 30 min pre-incubation, dialyzed
Experimental: Reversibility test was performed by using Dialyzer DiaEasy™ (6–8 kDa, BioVision, St. Grove, MA, USA).

SMILES | MAO-B relative activity, dialyzed (AD) [%]
O=C1Nc2ccccc2/C1=N/NC(=O)c1ccc(Br)cc1 [IS7] | 72.89

same assay, conditions: […] IC50, 30 min pre-incubation, undialyzed

SMILES | MAO-B relative activity, undialyzed (AU) [%]
O=C1Nc2ccccc2/C1=N/NC(=O)c1ccc(Br)cc1 [IS7] | 28.65

same assay, conditions: dialysis

SMILES | Reversibility of MAO-B inhibition
O=C1Nc2ccccc2/C1=N/NC(=O)c1ccc(Br)cc1 [IS7] | reversible-type inhibitors

biological target: T2, MAO-B; test: MAO-B inhibition assay (continuous, benzylamine); conditions: not given

SMILES | IC50 [nM]
O=C1Nc2ccc(Br)cc2/C1=N/NC(=O)c1ccccc1 [IS1] | 420 ± 28
O=C1Nc2ccc(Br)cc2/C1=N/NC(=O)c1ccc(Cl)cc1 [IS2] | 269 ± 4
O=C1Nc2ccc(Br)cc2/C1=N/NC(=O)c1ccc(Br)cc1 [IS3] | 514 ± 23
O=C1Nc2ccc(Br)cc2/C1=N/NC(=O)c1ccc(F)cc1 [IS4] | 7280 ± 1720
O=C1Nc2ccccc2/C1=N/NC(=O)c1ccc(Br)cc1 [IS7] | 82 ± 10
O=C1Nc2ccccc2/C1=N/NC(=O)c1ccc(F)cc1 [IS8] | 25500 ± 2030
O=C1Nc2ccc(F)cc2/C1=N/NC(=O)c1ccccc1 [IS9] | 9090 ± 1280

same assay, conditions: (IC50 of MAO-A)/(IC50 of MAO-B); MAO-B compared to MAO-A

SMILES | SI (selectivity index)
O=C1Nc2ccc(Br)cc2/C1=N/NC(=O)c1ccccc1 [IS1] | > 95.24
O=C1Nc2ccc(Br)cc2/C1=N/NC(=O)c1ccc(Cl)cc1 [IS2] | 34.03
O=C1Nc2ccc(Br)cc2/C1=N/NC(=O)c1ccc(Br)cc1 [IS3] | 4.64
O=C1Nc2ccc(Br)cc2/C1=N/NC(=O)c1ccc(F)cc1 [IS4] | 4.51
O=C1Nc2ccccc2/C1=N/NC(=O)c1ccc(Br)cc1 [IS7] | 233.85

same assay, conditions: read-out: Residual activity at 10 µM (%) MAO-B

SMILES | remaining activity at 10 µM [%]
O=C1Nc2ccc(Br)cc2/C1=N/NC(=O)c1ccccc1 [IS1] | 22 ± 2.75
O=C1Nc2ccc(Br)cc2/C1=N/NC(=O)c1ccc(Cl)cc1 [IS2] | 1.18 ± 2.04
O=C1Nc2ccc(Br)cc2/C1=N/NC(=O)c1ccc(Br)cc1 [IS3] | 1.04 ± 0.23
O=C1Nc2ccc(Br)cc2/C1=N/NC(=O)c1ccc(F)cc1 [IS4] | 42.5 ± 8.93
O=C1Nc2ccccc2/C1=N/NC(=O)c1ccc(Br)cc1 [IS7] | 3.2 ± 0.77
O=C1Nc2ccccc2/C1=N/NC(=O)c1ccc(F)cc1 [IS8] | 67.4 ± 7.8
O=C1Nc2ccc(F)cc2/C1=N/NC(=O)c1ccccc1 [IS9] | 45.6 ± 6.28

same assay, conditions: relative to basic compound IS5

SMILES | Fold higher MAO-B inhibition than IS5 [×]
O=C1Nc2ccccc2/C1=N/NC(=O)c1ccc(Br)cc1 [IS7] | 50.4

test system: GPx; test: Glutathione peroxidase (GPx) activity in LPS-induced SH-SY5Y cells; format: cell-based, human; conditions: 10 µM/mL
Description: A GPx assay kit (KrishGen Biosystems) was used to evaluate the GPx activity. The kit uses a colorimetric assay to determine the quantity of GPx. Glutathione reductase (GR) mediates GPx activity Oxidized glutathione (GSSG) is produced via hydroperoxide reduction by GPx. This glutathione is recycled back to its reduced state by GR and NADPH. The NADPH to NADP + oxidation was accompanied by a decrease in absorbance at 450 nm (A450). When GPx activity was rate-limiting, the rate of decline in A450 was directly correlated with GPx activity. Following treatment, adherent cells were removed from the wells, suspended in cold PBS, sonicated, and frozen. In accordance with the ELISA kit’s instructions, the lysed cell supernatant, or standard, was applied to all 96 wells of a plate together with a diluted radical detector to assay the activity of GPx. A microplate reader was used to measure the absorbance of the wells after 5 min[46]–[49]. Results were obtained in ng/mL.

SMILES | GPx (cellular anti-oxidant enzyme) effect
O=C1Nc2ccccc2/C1=N/NC(=O)c1ccc(Br)cc1 [IS7] | enhancing the enzyme activity
